Values quoted from earlier work as cited in US20230190684A1, “METHODS OF TREATING COVID-19 WITH A NICLOSAMIDE COMPOUND” (priority 2020, published 2023).
Where a name gives a salt, the structure may show the parent alone.

Assays:
[1] = in vivo
[2] = patients treated with niclosamide; literature (McEvoy 1995)

Row | Structure (SMILES) | solubility in acetone (acetone) | solubility in ether, ethanol and chloroform (ether, ethanol and chloroform) | water solubility (water, 20° C.) [µg/mL] | systemic bioavailability [1] | Less frequently reported AEs: rash, oral irritation, fever, rectal bleeding, weakness, bad taste in mouth, sweating, palpitation, constipation, alopecia, oedema of an arm, backache, irritability [2] [%] | Other reported AEs: vomiting; abdominal discomfort possibly associated with anorexia, diarrhea, drowsiness, dizziness and headache [2] | dissolves in distilled water (distilled water, 20° C.) [mg/L]
1 | O=C(Nc1ccc([N+](=O)[O-])cc1Cl)c1cc(Cl)ccc1O [Niclosamide, 5-chloro-N-(2-chloro-4-nitrophenyl)-2-hydroxybenzamide] | soluble | sparingly soluble | 5 to 8 | low | < 1 | 1-4 % of patients | 
2 | O=C(Nc1ccc([N+](=O)[O-])cc1Cl)c1cc(Cl)ccc1O [ethanolamine salt, 5-chloro-salicyl-(2-chloro-4-nitro) anilide 2-aminoethanol salt] |  |  |  |  |  |  | 180 to 280
